Columns and labels:
[1] = tested on: KYSE70 esophageal cancer cells; assay: Cell viability (MTT), KYSE70; type: cell-based; conditions: KYSE 70, 72 hours
Method: (§1) Cell viability (MTT) and CFSE Proliferation assay: Cells were plated in 96-well plates and let adhere overnight. After cell treatment, cell viability was measured by 3-(4,5-dimethylthiazol-2-yl)-2,5-diphenyl tetrazolium bromide (MTT) assay (CellTiter 96® Aqueous, Promega, Madison, Wis.).
(§2) Cell viability and detachment assays: After cells were treated with siRNA transfection, cell viability was measured by 3-(4,5-dimethylthiazol2-yl)-2,5-diphenyl tetrazolium bromide (MTT) assay (CellTiter 96® AQueous, Promega, Madison, Wis.). Briefly, 20 μl of the tetrazolium compound was added to each well. The cells were then incubated at 37° C. for 1 h. The plate was read at 490 nm with a plate reader to determine the viability. In detachment assays, detached and attached cells were harvested separately and counted in a hemocytometer. The percentage of detachment was calculated by dividing the number of detached cells by the total number of cells. Apoptosis assays: After treatment, attached and detached cells were collected, counted and prepared for terminal uridine deoxynucleotidyl transferase (TUNEL) assay by utilizing an APO-BRDU kit (BD Pharmingen, San Diego, Calif.) according to the manufacturer's instructions. Stained cells were analyzed with a fluorescence-activated cell sorting-Calibur flow cytometer (BD Biosciences). Calculation of the percentage of apoptotic cells in the sample was completed with CellQuest software (BD Biosciences). Apoptotic cells were also analyzed by Hoechst staining. Hoechst 33342 ([…]) was added to the fixed cells and the specimens were mounted on glass coverslips. The slides were viewed under the Zeiss microscope for apoptotic nuclei. The percent of apoptotic cells was calculated as the ratio of apoptotic cells to total number of cells.
(§3) In addition, the effect of INT2-31 on cell viability of esophageal, pancreatic and breast cancer cell lines was analyzed and the IC50 value for each cell line was determined, as shown in Table 1. […] Similar to melanoma results, INT2-31 inhibits viability more in cancer cells compared to normal cells. Sensitivity of the cells to INT2-31 varied and directly correlated to the FAK and IGF-1R expression level of the cells.

[2] = tested on: KYSE140 esophageal cancer cells; assay: Cell viability (MTT), KYSE140; type: cell-based; conditions: KYSE 140, 72 hours
Method: as §1, §2, §3

C8161 melanoma cells [3] = assay: Cell viability (MTT), C8161; type: cell-based, human; conditions: C8161, MTT
Method: as §1, §2, §3
To determine the effect on melanoma cell viability, three human melanoma cell lines were exposed to increasing doses of INT2-31 for 72 h and the results compared to human melanocytes. […] The effects of INT2-31 varied in the three cell lines and was possibly related to constitutive FAK and IGF-1R activation with the least sensitive cell line (SK-MEL-28) having the greatest expression of FAK and IGF-1R.

A375 melanoma cells = assay: Cell viability (MTT), A375; type: cell-based, human; conditions: A375, MTT
Method: as §1, §2
as §3, with “Sensitivity of the cells to INT2-31 varied and directly correlated to the FAK and IGF-1R expression level of the cells.” left out

FAK-NT2 and IGF-1R = molecular target: T1, FAK-NT2 and IGF-1R (Homo sapiens, UniProt Q05397); assay: Immunofluorescent staining and confocal microscopy, colocalization; type: cell-based; conditions: cells transfected in the presence of the compound
T1 construct: FAK-NT2 (a.a. 127-243); expressed in transfected cells
Method: Cells were fixed in 3.7% paraformaldehyde in 1×PBS for 10 min and permeabilized with 0.5% Triton X-100 for 5 minutes. Cells were then washed with 1×PBS, blocked with 25% normal goat serum in 1×PBS for 20 min and incubated with primary antibody (1:200 dilution in 25% goat serum) for 30 min at room temperature. After washing three times with 1×PBS, cells were incubated with a Texas Red-conjugated secondary antibody (1:400 dilution in 25% goat serum) for 30 min at room temperature and washed another three times with 1×PBS before observed under the microscope. For coimmunostaining experiments, cells were incubated with another primary antibody diluted 1:100 in 25% goat serum for 1 h. After washing three times with 1×PBS, a fluorescein isothiocyanate-conjugated secondary antibody (1:100 dilution) was applied to the coverslip. Cells immunostained with FAK and IGF-IR antibodies were evaluated for colocalization with a Leica confocal microscope and the MRC-1024 confocal laser scanning system. Cells treated with FAK-CD or FAK siRNA with or without test compound were stained with FAK antibody and evaluated for displacement of FAK from the focal adhesions with a Zeiss microscope. […] Colocalization is low for FAK-NT1, FAK-NT3 and FAK-CD.

IGF-1R+/+ and −/− MEFs = assay: MTT assay on IGF-1R wildtype and null fibroblasts; type: cell-based, mouse; conditions: MTT, p<0.05
Method: as §1
(§4) Cell proliferation assay: Cell proliferation assay (Promega) using CellTiter 96 aqueous one solution was performed by adding a small amount of the One Solution Reagent directly to culture wells, incubating for 1-4 hours and then recording absorbance at 490 nm with a spectrophotometric plate reader. The quantity of formazan product as measured by the amount of 490 nm absorbance was directly proportional to the number of living cells in culture.
as §2

[4] = tested on: FAK +/+ and FAK −/− mouse embryonic fibroblast; assay: MTT assay on FAK wildtype and null fibroblasts; type: cell-based; conditions: MTT, p<0.05
Method: as §1, §4, §2

C8161 melanoma cells [5] = assay: Detachment assay, C8161 cells; type: cell-based, human; conditions: INT2-31 5 μM at 72 h; TAE 226 at 48 h and 72 h
Method: In detachment assays, detached and attached cells were harvested separately and counted in a hemocytometer. The percentage of detachment was calculated by dividing the number of detached cells by the total number of cells.
Detachment assay: Cells were plated with and without compound for 24, 48, and 72 h, and detached and attached cells were counted in a hemocytometer. The percent of detachment was calculated by dividing the number of detached cells by the total number of cells and experiments performed in triplicate. Apoptosis assays: After treatment, attached and detached cells were collected, counted and prepared for terminal uridine deoxynucleotidyl transferase (TUNEL) assay by utilizing an APO-BRDU kit (BD Pharmingen, San Diego, Calif.) and cells analyzed with a FACSCalibur cytometer (Becton Dickinson, San Jose, Calif.). In addition, apoptotic cells were analyzed with Hoechst 33342 staining (1 μg/ml). The percent of apoptotic cells was calculated as the ratio of apoptotic cells to total number of cells.

T1 sequence (Q05397 127-243): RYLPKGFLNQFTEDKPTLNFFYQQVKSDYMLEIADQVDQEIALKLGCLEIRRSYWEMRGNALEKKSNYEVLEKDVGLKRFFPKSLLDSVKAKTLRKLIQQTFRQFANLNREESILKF

Compound: O=c1[nH]cc(F)c(=O)[nH]1 [5-FU, 5-Fluorouracil, reference compound]
- sensitivity of cells to single-agent treatment [1]: sensitive
- sensitivity of cells to single-agent treatment [2]: sensitive

Compound: CC(=O)C1=C(O)C2(C)c3c(O)c(C)c(O)c(C(C)=O)c3OC2(Sc2ccccc2)CC1=O (centres unmarked) [NSC 250435, 1,1′-(1,7,9-Trihydroxy-8,9b-dimethyl-3-oxo-4-a-(phenylthio)-3,4,4a,9b-tetrahydrodibenzo-[b,d]furan-2,6-diyl)diethanone]
- cell viability (in words) (C8161 melanoma cells [3]): inhibited cell viability
- cell viability (in words) (A375 melanoma cells): inhibited cell viability
- percentage of interaction between FAK-NT2 and IGF-1R (FAK-NT2 and IGF-1R): around 30%

Compound: Nc1ncnc2c1c(-c1cccc(OCc3ccccc3)c1)cn2C1CC(CN2CCC2)C1 (centres unmarked) [NVP AEW541, reference compound]
- effect on IGF-1R wildtype compared to null fibroblasts (IGF-1R+/+ and −/− MEFs): increased effect
- effect on FAK wildtype compared to null fibroblasts [4]: increased effect

Compound: CNC(=O)c1ccccc1Nc1nc(Nc2ccc(N3CCOCC3)cc2OC)ncc1Cl [TAE 226, reference compound]
- effect on detachment (in words) (C8161 melanoma cells [5]): Greater effects

Reference: US20120107323A1, “KINASE PROTEIN BINDING INHIBITORS” (University of Florida, priority 2009, published 2012)
